Experiments:
Assay in all cases: relative viability (nuclei count vs DMSO), 5 days (fraction); higher = more cells survive
[1] = compound: O=C(CCCCCCNC(=O)c1cnc(N(c2ccccc2)c2ccccc2)nc1)NO [Ricolinostat] + Nc1nc2[nH]cc(CCc3ccc(C(=O)N[C@@H](CCC(=O)O)C(=O)O)cc3)c2c(=O)[nH]1 [Pemetrexed] (partner 0.2 µM)
In short: (§1)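 One day after seeding in 1536-well plates, lung cancer cell lines were dosed by pin tool. Dosing was either single-drug or a fixed anchor-drug dose plus five library-drug doses (not always all listed) in √10 steps. After 5 days, nuclei were stained in one fix-and-stain step and counted on 4× images, and relative viability is the nuclei count of treated wells over that of vehicle wells, given as the median of duplicate plates.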

[2] = compound: O=C(CCCCCCNC(=O)c1cnc(N(c2ccccc2)c2ccccc2)nc1)NO [Ricolinostat] + Cc1nc(Nc2ncc(C(=O)Nc3c(C)cccc3Cl)s2)cc(N2CCN(CCO)CC2)n1 [Dasatinib] (partner 0.075 µM)
In short: as §1

[3] = compound: C1=CC=C(C(=C1)C2=CC=C(C=C2)C3=CSC4=C3C(=C(C(=O)N4)C#N)O)O + Cc1nc(NC(=O)N2CCC[C@H]2C(N)=O)sc1-c1ccnc(C(C)(C)C(F)(F)F)c1 [Alpelisib] (partner 2 µM)
In short: as §1

[4] = compound: O=C(CCCCCCNC(=O)c1cnc(N(c2ccccc2)c2ccccc2)nc1)NO [Ricolinostat] + CC1(C)CCC(c2ccc(Cl)cc2)=C(CN2CCN(c3ccc(C(=O)NS(=O)(=O)c4ccc(N[C@H](CCN5CCOCC5)CSc5ccccc5)c(S(=O)(=O)C(F)(F)F)c4)cc3)CC2)C1 [Navitoclax] (partner 0.5 µM)
In short: as §1

[5] = compound: C1=CC=C(C(=C1)C2=CC=C(C=C2)C3=CSC4=C3C(=C(C(=O)N4)C#N)O)O + COc1cccc2cc(-c3nc([C@H]4CC[C@H](C(=O)O)CC4)n4ncnc(N)c34)[nH]c12 [OSI-027] (partner 0.5 µM)
In short: as §1

NCI-H1792
relative viability ([1]; first compound 0.253 µM): 0.92
relative viability ([1]; first compound 0.8 µM): 0.59
relative viability ([1]; first compound 2.53 µM): 0.415
relative viability ([2]; first compound 0.253 µM): 0.829
relative viability ([2]; first compound 0.8 µM): 0.718
relative viability ([2]; first compound 2.53 µM): 0.882
relative viability ([3]; first compound 0.253 µM): 0.638
relative viability ([3]; first compound 0.8 µM): 0.744
relative viability ([3]; first compound 2.53 µM): 0.612
relative viability ([3]; first compound 8 µM): 0.336
relative viability ([4]; first compound 0.08 µM): 0.438
relative viability ([4]; first compound 0.253 µM): 0.632
relative viability ([4]; first compound 0.8 µM): 0.518
relative viability ([4]; first compound 2.53 µM): 0.654
relative viability ([5]; first compound 0.253 µM): 0.688
relative viability ([5]; first compound 2.53 µM): 0.667
relative viability ([5]; first compound 8 µM): 0.477

Reference: the supplement of paper PMC10307832
